In US20240109917A1 (ACTELION PHARMACEUTICALS LTD, priority 2020, published 2024) one finds IC50 data, which are given here for 16 compounds.

Each structure is given as a SMILES string. Bounds are passed on as bounds.

One may read the IC50 as the concentration that inhibits the measured activity by half.

The target in one assay is VEGFR2, unphosphorylated (Homo sapiens (Human), UniProt P35968). Nature of the assay: VEGFR ADP GLO Assay. The format is biochemical. (In ADP-Glo the light output rises with the ADP produced.)
Chain of VEGFR2, unphosphorylated (P35968 20-1356): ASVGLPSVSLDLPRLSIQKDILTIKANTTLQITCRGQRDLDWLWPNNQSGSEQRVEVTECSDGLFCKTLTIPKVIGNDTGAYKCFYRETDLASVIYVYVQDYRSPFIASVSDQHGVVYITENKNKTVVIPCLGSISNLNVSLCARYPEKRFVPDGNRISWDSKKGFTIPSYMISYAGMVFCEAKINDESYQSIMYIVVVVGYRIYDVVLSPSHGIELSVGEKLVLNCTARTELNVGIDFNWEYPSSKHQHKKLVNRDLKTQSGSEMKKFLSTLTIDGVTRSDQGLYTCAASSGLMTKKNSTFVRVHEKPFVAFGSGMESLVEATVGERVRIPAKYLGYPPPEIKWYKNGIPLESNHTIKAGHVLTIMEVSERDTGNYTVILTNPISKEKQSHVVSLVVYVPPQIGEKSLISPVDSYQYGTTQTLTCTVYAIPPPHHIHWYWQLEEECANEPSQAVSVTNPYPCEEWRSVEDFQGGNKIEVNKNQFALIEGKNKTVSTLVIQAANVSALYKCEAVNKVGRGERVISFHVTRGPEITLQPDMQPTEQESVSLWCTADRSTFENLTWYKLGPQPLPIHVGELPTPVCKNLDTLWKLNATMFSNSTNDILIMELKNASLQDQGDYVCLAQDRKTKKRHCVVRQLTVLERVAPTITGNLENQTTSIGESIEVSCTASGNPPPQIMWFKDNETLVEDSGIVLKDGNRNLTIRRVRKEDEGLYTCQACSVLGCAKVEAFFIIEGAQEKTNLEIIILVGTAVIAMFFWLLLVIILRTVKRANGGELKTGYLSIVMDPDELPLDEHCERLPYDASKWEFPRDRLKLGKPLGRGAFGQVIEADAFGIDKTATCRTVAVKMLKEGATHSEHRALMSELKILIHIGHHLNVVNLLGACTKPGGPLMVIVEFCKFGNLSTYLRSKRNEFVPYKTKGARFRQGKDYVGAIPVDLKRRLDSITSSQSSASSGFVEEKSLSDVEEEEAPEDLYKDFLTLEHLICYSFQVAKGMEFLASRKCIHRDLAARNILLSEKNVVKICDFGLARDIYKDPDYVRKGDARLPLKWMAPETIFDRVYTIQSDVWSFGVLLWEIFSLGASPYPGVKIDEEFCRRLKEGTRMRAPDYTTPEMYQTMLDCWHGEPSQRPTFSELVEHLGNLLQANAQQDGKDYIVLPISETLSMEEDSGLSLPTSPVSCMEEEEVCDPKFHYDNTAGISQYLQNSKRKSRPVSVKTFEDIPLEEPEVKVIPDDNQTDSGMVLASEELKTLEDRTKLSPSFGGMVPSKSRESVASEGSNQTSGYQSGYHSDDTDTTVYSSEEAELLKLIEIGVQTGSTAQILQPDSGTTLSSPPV
Assay [1] concerns the target His6-TEV-PDGFRβ (557-1016) (Homo sapiens (Human), UniProt P09619). Briefly: PDGFRβ HTRF Assay. The format is biochemical. As to conditions: read-out: PDGFR HTRF IC50. The method in brief: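 Human PDGFRβ (557-1016) pre-incubated with compound for 30 min at RT in pH 7.5 HEPES/MgCl2/EGTA/Brij-35/DTT buffer. Reaction started with ATP and TK-biotin peptide, run 3 h at RT, then quenched with EDTA-containing Eu-cryptate antibody/streptavidin-XL665. HTRF 665/620 nm ratio read after 60 min; percent inhibition relative to DMSO and 10 μM imatinib controls.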
In general terms: Time-resolved FRET reads energy transfer from a long-lived donor to a nearby acceptor.

The target in assay [2] is Tb-labeled inactive PDGFRβ (Homo sapiens (Human), UniProt P09619). Briefly: PDGFRβ LanthaScreen Assay. The class given is binding. As to conditions: read-out: PDGFR Lantha IC50.
Chain of Tb-labeled inactive PDGFRβ (P09619 33-1106): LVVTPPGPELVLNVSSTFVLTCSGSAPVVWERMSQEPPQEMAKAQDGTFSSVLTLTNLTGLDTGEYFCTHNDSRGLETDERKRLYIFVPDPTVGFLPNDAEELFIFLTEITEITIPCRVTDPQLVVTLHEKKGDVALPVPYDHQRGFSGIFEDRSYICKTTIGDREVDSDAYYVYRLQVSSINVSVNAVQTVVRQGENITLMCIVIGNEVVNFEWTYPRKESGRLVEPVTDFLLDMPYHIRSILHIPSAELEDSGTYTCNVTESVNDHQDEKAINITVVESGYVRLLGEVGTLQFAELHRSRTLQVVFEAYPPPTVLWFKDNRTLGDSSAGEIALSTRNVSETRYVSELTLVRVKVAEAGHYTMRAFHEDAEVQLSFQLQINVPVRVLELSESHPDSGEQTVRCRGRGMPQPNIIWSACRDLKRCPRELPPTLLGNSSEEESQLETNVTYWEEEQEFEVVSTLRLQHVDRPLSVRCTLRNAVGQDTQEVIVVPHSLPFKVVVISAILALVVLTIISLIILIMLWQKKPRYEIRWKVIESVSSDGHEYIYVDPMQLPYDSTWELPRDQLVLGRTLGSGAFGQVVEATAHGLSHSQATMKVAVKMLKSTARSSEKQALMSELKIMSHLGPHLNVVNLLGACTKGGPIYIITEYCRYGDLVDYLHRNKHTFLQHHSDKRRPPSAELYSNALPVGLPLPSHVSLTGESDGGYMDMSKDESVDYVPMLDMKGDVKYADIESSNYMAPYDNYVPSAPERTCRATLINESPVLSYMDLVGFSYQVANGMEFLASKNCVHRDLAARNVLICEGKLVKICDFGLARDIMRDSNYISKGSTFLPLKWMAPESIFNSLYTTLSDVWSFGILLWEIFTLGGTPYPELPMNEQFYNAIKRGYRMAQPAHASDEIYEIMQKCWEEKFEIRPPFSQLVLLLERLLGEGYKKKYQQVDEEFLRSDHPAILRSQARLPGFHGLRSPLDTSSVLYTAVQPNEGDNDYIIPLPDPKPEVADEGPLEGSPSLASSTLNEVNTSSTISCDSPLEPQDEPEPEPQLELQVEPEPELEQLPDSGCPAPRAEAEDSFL

Chain of His6-TEV-PDGFRβ (557-1016) (P09619 557-1016): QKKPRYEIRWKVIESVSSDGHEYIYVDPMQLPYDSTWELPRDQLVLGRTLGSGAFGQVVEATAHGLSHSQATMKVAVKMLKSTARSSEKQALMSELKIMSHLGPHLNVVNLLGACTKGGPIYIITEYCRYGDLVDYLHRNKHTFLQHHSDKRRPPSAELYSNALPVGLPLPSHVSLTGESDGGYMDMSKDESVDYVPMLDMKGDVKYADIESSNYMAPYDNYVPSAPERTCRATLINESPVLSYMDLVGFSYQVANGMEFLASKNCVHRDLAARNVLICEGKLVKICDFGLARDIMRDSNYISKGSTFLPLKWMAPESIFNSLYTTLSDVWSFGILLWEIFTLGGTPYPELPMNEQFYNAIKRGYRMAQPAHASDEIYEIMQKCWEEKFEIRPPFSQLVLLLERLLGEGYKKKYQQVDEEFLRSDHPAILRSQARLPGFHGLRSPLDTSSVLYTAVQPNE

Regarding `Cc1ncc(C(=O)NCCN2CCCC2(C)C)cc1NC(=O)c1cnn2cc(-c3cnn(Cc4cc(O)no4)c3)sc12` [Example 363, N-(5-((2-(2,2-dimethylpyrrolidin-1-yl)ethyl)carbamoyl)-2-methylpyridin-3-yl)-2-(1-((3-hydroxyisoxazol-5-yl)methyl)-1H-pyrazol-4-yl)pyrazolo[5,1-b]thiazole-7-carboxamide], the IC50 on VEGFR2, unphosphorylated was above 7500 nM; in assay [1], 1.3 nM; in assay [2], 14.1 nM.
For `Cc1ncc(NC(=O)CN2C[C@H](C)O[C@@H](C)C2)cc1NC(=O)c1cnn2cc(-c3cc[nH]c3)sc12` [Example 365, N-(5-(2-(2,6-trans-dimethylmorpholino)acetamido)-2-methylpyridin-3-yl)-2-(1H-pyrrol-3-yl)pyrazolo[5,1-b]thiazole-7-carboxamide], the IC50 at VEGFR2, unphosphorylated turned out to be 596 nM; in assay [1], 0.3 nM; in assay [2] it was 2.4 nM.
With `Cc1ncc(NC(=O)CN2CC3CCC(C2)O3)cc1NC(=O)c1cnn2cc(-c3cc[nH]c3)sc12` [Example 366, N-(5-(2-(8-oxa-3-azabicyclo[3.2.1]octan-3-yl)acetamido)-2-methylpyridin-3-yl)-2-(1H-pyrrol-3-yl)pyrazolo[5,1-b]thiazole-7-carboxamide], the 50% inhibitory concentration (IC50) was determined as 571 nM at VEGFR2, unphosphorylated; 0.3 nM in assay [1]; 2.5 nM in assay [2].
Consider `COc1ncccc1-c1cn2ncc(C(=O)Nc3cc(NC(=O)CN4CC(C)(C)C4)cnc3C)c2s1` [Example 369, N-(5-(2-(3,3-dimethylazetidin-1-yl)acetamido)-2-methylpyridin-3-yl)-2-(2-methoxypyridin-3-yl)pyrazolo[5,1-b]thiazole-7-carboxamide], for which the IC50 against VEGFR2, unphosphorylated was above 7500 nM; in assay [1] it was 0.2 nM; in assay [2] it was 1.4 nM.
The like results for `Cc1ncc(NC(=O)CN2C[C@H](CO)OC(C)(C)C2)cc1NC(=O)c1cnn2cc(-c3cnn(C)c3)sc12` [Example 376, (R)—N-(5-(2-(6-(hydroxymethyl)-2,2-dimethylmorpholino)acetamido)-2-methylpyridin-3-yl)-2-(1-methyl-1H-pyrazol-4-yl)pyrazolo[5,1-b]thiazole-7-carboxamide] were, in that order, above 7500 nM, 0.8 nM and 5.6 nM.
The like results for `Cc1ncc(NC(=O)CN2C[C@@H](CO)OC(C)(C)C2)cc1NC(=O)c1cnn2cc(-c3cnn(C)c3)sc12` [Example 377, (S)—N-(5-(2-(6-(hydroxymethyl)-2,2-dimethylmorpholino)acetamido)-2-methylpyridin-3-yl)-2-(1-methyl-1H-pyrazol-4-yl)pyrazolo[5,1-b]thiazole-7-carboxamide] were, in that order, above 7500 nM, 0.8 nM and 6.2 nM.
As to `COc1ncccc1-c1cn2ncc(C(=O)Nc3cc(NC(=O)CN4C[C@H](CO)OC(C)(C)C4)cnc3C)c2s1` [Example 379, (R)—N-(5-(2-(6-(hydroxymethyl)-2,2-dimethylmorpholino)acetamido)-2-methylpyridin-3-yl)-2-(2-methoxypyridin-3-yl)pyrazolo[5,1-b]thiazole-7-carboxamide], the IC50 at VEGFR2, unphosphorylated is above 2500 nM; in assay [1] it was 0.4 nM; in assay [2], 2.7 nM.
As to `COc1ncccc1-c1cn2ncc(C(=O)Nc3cc(NC(=O)CN4C[C@@H](CO)OC(C)(C)C4)cnc3C)c2s1` [Example 380, (S)—N-(5-(2-(6-(hydroxymethyl)-2,2-dimethylmorpholino)acetamido)-2-methylpyridin-3-yl)-2-(2-methoxypyridin-3-yl)pyrazolo[5,1-b]thiazole-7-carboxamide], the IC50 was above 2500 nM against VEGFR2, unphosphorylated; 0.4 nM in assay [1]; 3 nM in assay [2].
The like results for `COCC1CN(CC(=O)Nc2cnc(C)c(NC(=O)c3cnn4cc(-c5cnn(C)c5)sc34)c2)CC(C)(C)O1` (stereo not drawn) [Example 383, N-(5-(2-(6-(methoxymethyl)-2,2-dimethylmorpholino)acetamido)-2-methylpyridin-3-yl)-2-(1-methyl-1H-pyrazol-4-yl)pyrazolo[5,1-b]thiazole-7-carboxamide] were, in that order, above 2500 nM, 1 nM and 7.8 nM.
The like results for `COc1ncccc1-c1cn2ncc(C(=O)Nc3cc(C(=O)NCCN4CC(C)(C)C4)cnc3C)c2s1` [Example 387, N-(5-((2-(3,3-dimethylazetidin-1-yl)ethyl)carbamoyl)-2-methylpyridin-3-yl)-2-(2-methoxypyridin-3-yl)pyrazolo[5,1-b]thiazole-7-carboxamide] were, in that order, above 7500 nM, 0.2 nM and 1.5 nM.
On to `CCn1nccc1-c1cn2ncc(C(=O)Nc3cc(NC(=O)CN4CC(C)(C)C4)cnc3C)c2s1` [Example 388, N-(5-(2-(3,3-dimethylazetidin-1-yl)acetamido)-2-methylpyridin-3-yl)-2-(1-ethyl-1H-pyrazol-5-yl)pyrazolo[5,1-b]thiazole-7-carboxamide], for which the IC50 against VEGFR2, unphosphorylated is above 7500 nM; in assay [1] it was 0.5 nM; in assay [2] it was 7.4 nM.
The like results for `Cc1cnn(C)c1-c1cn2ncc(C(=O)Nc3cc(NC(=O)CN4CC(C)(C)C4)cnc3C)c2s1` [Example 389, 2-(1,4-dimethyl-1H-pyrazol-5-yl)-N-(5-(2-(3,3-dimethylazetidin-1-yl)acetamido)-2-methylpyridin-3-yl)pyrazolo[5,1-b]thiazole-7-carboxamide] were, in that order, above 7500 nM, 0.6 nM and 7.5 nM.
The like results for `Cc1ncc(NC(=O)CN2CC(C)(C)C2)cc1NC(=O)c1cnn2cc(-c3cccnc3C)sc12` [Example 390, N-(5-(2-(3,3-dimethylazetidin-1-yl)acetamido)-2-methylpyridin-3-yl)-2-(2-methylpyridin-3-yl)pyrazolo[5,1-b]thiazole-7-carboxamide] were, in that order, above 7500 nM, 0.6 nM and 10.1 nM.
The like results for `CCc1ncccc1-c1cn2ncc(C(=O)Nc3cc(NC(=O)CN4CC(C)(C)C4)cnc3C)c2s1` [Example 391, N-(5-(2-(3,3-dimethylazetidin-1-yl)acetamido)-2-methylpyridin-3-yl)-2-(2-ethylpyridin-3-yl)pyrazolo[5,1-b]thiazole-7-carboxamide] were, in that order, above 7500 nM, 0.9 nM and 18.4 nM.
`COc1ncc(-c2cn3ncc(C(=O)Nc4cc(NC(=O)CN5CC(C)(C)C5)cnc4C)c3s2)c(OC)n1` [Example 392, 2-(2,4-dimethoxypyrimidin-5-yl)-N-(5-(2-(3,3-dimethylazetidin-1-yl)acetamido)-2-methylpyridin-3-yl)pyrazolo[5,1-b]thiazole-7-carboxamide]: the 50% inhibitory concentration (IC50) on VEGFR2, unphosphorylated stood at 7440 nM; in assay [1] it was 0.5 nM; in assay [2] it was 4.6 nM.
The like results for `COc1cc(-c2cn3ncc(C(=O)Nc4cc(NC(=O)CN5CC(C)(C)C5)cnc4C)c3s2)c(OC)nn1` [Example 393, 2-(3,6-dimethoxypyridazin-4-yl)-N-(5-(2-(3,3-dimethylazetidin-1-1)acetamido)-2-methylpyridin-3-yl)pyrazolo[5,1-b]thiazole-7-carboxamide] were, in that order, above 7500 nM, 0.7 nM and 5.1 nM.
